According to patent US11890349B2, “Treatment of inflammatory diseases with inhibitors of C5A activity” (InflaRx GmbH, priority 2017, dated 2024):

Legend:
[1] = test system: CD11b upregulation on the surface of neutrophils; experiment: Human CD11b potency assay (flow cytometric assay) with HS patient plasma or rhC5a-spiked human plasma; type: cell-based
From the text: Accumulation of neutrophils at the site of inflammation is dependent on the expression of adhesion molecules, including CD11b (also known as integrin alpha M) (Larson and Springer, 1990; Carlos and Harlan, 1990). Upregulation and mobilizing of CD11b/CD18 from intracellular pools to the surface of neutrophils is essential for the rolling action and migration of human neutrophils (Smith et al., 1989). Enhanced expression of CD11b/CD18 therefore reflects an inflammatory triggering event. The human CD11b assay is conducted using flow cytometry to detect FITC-conjugated anti-CD11b antibody on the surface of neutrophils. Activated complement products, especially elevated endogenous C5a (eC5a) in HS patient plasma samples can strongly upregulate CD11b expression through the binding of C5a to its receptor C5aR (CD88) on neutrophils. Consequently, blockade of the C5a-C5aR axis is expected to abolish or attenuate CD11b upregulation on the surface of neutrophils.
Two patient plasma samples Pat. 088 and Pat. 092 (5 μL) were incubated with fresh human blood (60 μL, as source of neutrophils) in the absence or presence of C5a-C5aR axis blockers (anti-C5a antibody IFX-1, anti-C5aR antibodies clone S5/1 and clone 7H110, C5aR antagonist PMX-53, and C5aR inhibitor Avacopan; 10 μL) in a total volume of 100 μL. Two control plasma samples (Ctrl 009 and Ctrl 010, 5 μL) prepared according to the procedure applied to the patient samples served as controls for unspecific activation. Blood with only saline (40 μL) or normal human plasma pool (huPP 5 μL+saline 35 μL) served as the non-stimulated control to define the baseline expression of CD11b. Blood sample with normal human plasma pool and spiked with recombinant human C5a (rhC5a) mimicked the stimulated condition. All samples were incubated at 37° C. for 20 min to activate CD11b upregulation. After cooling on ice, 2 μL of FITC-conjugated anti-mouse CD11b antibody was added to the samples. The labeled samples were kept on ice in the dark for another 30-min to minimize the background signal. Red blood cells were then lysed with 1×FACS Lysing solution at room temperature for 10 min. 2 mL Staining buffer was used to wash the remaining cells twice. After centrifugation at 2500 rpm for 3 min, cells were resuspended in 0.5 mL Staining buffer and ready for FACS analysis. A gate was set on the FSC vs. SSC plot to allow analysis only of cells with the size of neutrophils.
The percentage of blocking activity (BA) of the C5a-C5aR axis blockade test material was calculated using the formula below. Where MFI is the mean fluorescence intensity emitted from the CD11b-bound FITC on neutrophils. BA (%)=(MFIPatient plasma−MFITest material spiked patient plasma)÷(MFIPatient plasma−MFIhuPP)×100 b) Statistical Analysis

[2] = test system: recombinant human C5a (rhC5a)-induced CD11b upregulation on blood neutrophils; experiment: CD11b assay in human whole blood stimulated with rhC5a; type: cell-based
Protocol: Human whole blood was stimulated with rhC5a or ZAP. To test the blocking activity of IFX-1 and irrelative control IgG4 on rhC5a, the antibodies were diluted to final Ab/Ag molar ratios of 1:1 and 0.5:1. To test the blocking activity of IFX-1 on eC5a, IFX-1 was diluted to reach final Ab/Ag molar ratios of approximately 4:1/3:1/2:1/1:1/0.5:1. Blood only with buffer served as a non-stimulation control to assess the baseline CD11b expression. Blood with antibody alone was used to determine the effects on CD11b expression of the antibody under non-stimulated condition. The complete mixture (Ab/Ag/blood) was incubated at 37° C. for 20 min to evaluate C5a-induced up-regulation of CD11b. After addition of anti-mouse CD11b:FITC samples were incubated for 30 min on ice to minimize background staining. Granulocytes were gated and mean fluorescence intensity (MFI) of FITC labeled (CD11b expressing) granulocytes was examined by flow cytometer.
Human blood was stimulated with rhC5a or zymosan A, and the complete mixture (Ab/Ag/blood) was incubated at 37° C. for 20 min to stimulate the C5a-induced up-regulation of CD11b. […] After lysis, cells were analyzed using flow cytometer. On the FSC/SSC dot-plot, granulocytes were gated and mean fluorescence intensity (MFI) of FITC labeled (CD11b expressing) granulocytes was examined for the whole sample set. […]

[3] = test system: zymosan-induced generation of IL-8 in human whole blood; experiment: Cytokine IL-8 ELISA after zymosan A stimulation of human whole blood; type: cell-based; conditions: various concentrations of zymosan A, FIG. 4
Protocol: Human IL-8 ELISA was performed as recommended in the instruction manual under section “Assay procedure” (eBioscience Inc., San Diego, CA). Briefly, coating was performed overnight at 4° C. using 100 μl 1× capture antibody. Plates were blocked using 200 μl 1× assay diluents at RT for 1 h. Standard stock solutions were diluted with 1× assay diluents to the desired concentration, followed by 6 serial 1:2 dilutions. Sample supernatants were diluted as required in 1× assay diluents. According to the “Assay procedure”, 100 μl of standard dilutions and sample dilutions were added to the coated plate and incubated at RT for 1 h, followed by the incubation with 100 μl 1× detection antibody (RT, 1 h) and 100 μl 1× avidin-HRP (RT, 30 min). Color development was performed with 100 μl TMB substrate solution at RT for 10 min in the dark and was terminated with 100 μl stop solution. Absorbance was read out within 30 min using the plate reader at 450 nm. Zero standard value (blank) was subtracted from all standards and samples. Cytokine concentration of samples was calculated using a log(x)/log(y) standard curve of included standard samples.
In the same experimental set-up, IL-8 levels were measured and used to assess the inflammatory response. IL-8 concentrations after various doses of zymosan A stimulation ranged from 458 pg/ml to 3218 pg/ml in the absence of IFX-1. […]

[4] = test system: HS plasma-induced CD11b upregulation on blood neutrophils; experiment: CD11b upregulation on blood neutrophils induced by HS plasma (human whole blood model); type: cell-based; conditions: HS plasma samples Pat. 088 and Pat. 092, FIG. 6
From the text: To determine the role of C5a in the HS plasma sample on the neutrophil activation, the HS plasma samples with high levels of C5a were chosen and assessed by employing the human whole blood model. […] Recombinant human C5a was used as the positive control, while the plasma from healthy volunteers was chosen as the negative control. […] From these novel results the inventors concluded that blockade of C5a in HS patients is sufficient to achieve a strong suppression on neutrophil activation.

[5] = test system: cynomolgus monkey; experiment: Nonclinical tests and studies including GLP toxicology studies in cynomolgus monkey; conditions: in vitro/ex vivo tests and in vivo studies incl. GLP toxicology in cynomolgus monkey
[6] = biological target: T1, human C5a (Homo sapiens, UniProt P01031); experiment: In vitro blocking of C5a-induced biological effects; type: cell-based; conditions: experimental in vitro settings
T1 sequence (P01031 678-751 limits assumed): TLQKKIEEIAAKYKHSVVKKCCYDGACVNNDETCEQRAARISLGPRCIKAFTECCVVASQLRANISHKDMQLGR

[7] = test system: patients with moderate to severe hidradenitis suppurativa
Protocol: Primary objective of the trial was to explore the safety and tolerability of IFX-1 administered over 8 weeks. Secondary objectives of the trial were to assess the pharmacokinetics and pharmacodynamics of IFX-1 as well as to generate preliminary data on the efficacy of IFX-1 on clinical endpoints (e.g., HiSCR, DLQI, VAS for disease status, VAS for pain, HS-PGA, modified Sartorius Score) to generate further hypotheses. The enrolled patients were treated with 800 mg IFX-1 twice in the first week and once a week thereafter for the total 8-week treatment; i.e. IFX-1 was administered in nine intravenous doses of 800 mg IFX-1 on days 1, 4, 8, 15, 22, 29, 36, 43, and 50. All patients were followed up for 12 additional weeks.
• 1. Male or female patients ≥18 years old • 2. Written informed consent • 3. Diagnosis of HS for at least 1 year • 4. HS lesions in at least 2 distinct anatomic areas, one of which is Hurley Stage II or III • 5. Total AN (abscesses and nodules) count ≥3 • 6. Patients with either primary or secondary failure of biological treatment or are not eligible for treatment with other biologicals • NOTE: a primary failure is defined as an at least 12 week treatment with a biological compound without effect and a secondary failure as achieving an initial response after at least 12 week treatment with a biological compound followed by a relapse. • 7. […]

[8] = test system: human; conditions: in vivo
[9] = HS patient plasma Pat. 088, test material 100 μM
[10] = HS patient plasma Pat. 088, test material 500 μM
[11] = HS patient plasma Pat. 092, test material 100 μM
[12] = HS patient plasma Pat. 092, test material 500 μM
[13] = HS patient plasma Pat. 088, test material 50 nM
[14] = HS patient plasma Pat. 088, test material 20 μM
[15] = HS patient plasma Pat. 092, test material 50 nM
[16] = HS patient plasma Pat. 092, test material 20 μM
[17] = HS patient plasma Pat. 088, test material 20 nM
[18] = HS patient plasma Pat. 092, test material 20 nM

Cc1ccc(NC(=O)[C@H]2CCCN(C(=O)c3c(C)cccc3F)[C@H]2c2ccc(NC3CCCC3)cc2)cc1C(F)(F)F [Avacopan, (2R,3S)-2-[4-(cyclopentylamino)phenyl]-1-(2-fluoro-6-methylbenzoyl)-N-[4-methyl-3-(trifluoromethyl)phenyl]piperidine-3-carboxamide]
CD11b upregulation induced by HS patient plasma ([1]; 500 μM, FIG. 11): completely blocked | Blocking activity (%) [1, 9]: 77.35% | CD11b (mean MFI) [1, 9]: 5289 | Blocking activity (%) [1, 10]: 104.57% | CD11b (mean MFI) [1, 10]: 3027 | Blocking activity (%) [1, 11]: 79.60% | CD11b (mean MFI) [1, 11]: 5000 | Blocking activity (%) [1, 12]: 104.17% | CD11b (mean MFI) [1, 12]: 3081.5

Ac-Phe-cyclo(Orn-Pro-D-Cha-Trp-Arg) [PMX-53]
CD11b upregulation induced by HS patient plasma samples as well as by rhC5a ([1]; 20 μM, FIG. 9B): completely abrogated | Blocking activity (%) [1, 13]: 55.46% | CD11b (mean MFI) [1, 13]: 4728.5 | Blocking activity (%) [1, 14]: 104.48% | CD11b (mean MFI) [1, 14]: 2027.5 | Blocking activity (%) [1, 15]: 56.69% | CD11b (mean MFI) [1, 15]: 4657.5 | Blocking activity (%) [1, 16]: 108.59% | CD11b (mean MFI) [1, 16]: 1912.5 | CD11b (mean MFI) ([1]; huPP + rhC5a (20 nM), test material 50 nM): 4235.5 | CD11b (mean MFI) ([1]; huPP + rhC5a (20 nM), test material 20 μM): 1851 | CD11b (mean MFI) ([1]; huPP, non-stimulated, test material 50 nM): 2053.5 | CD11b (mean MFI) ([1]; huPP, non-stimulated, test material 20 μM): 2218.5 | Blocking activity (%) ([1]; rhC5a-spiked huPP (20 nM rhC5a), test material 50 nM): 50.30% | Blocking activity (%) ([1]; rhC5a-spiked huPP (20 nM rhC5a), test material 20 μM): 107.88%

B1: IFX-1: chimeric monoclonal IgG4 antibody which specifically binds to the soluble human complement split product C5a (antibody, V domains shown)
VH: QVQLQQSGPQLVRPGTSVKISCKASGYSFTTFWMDWVKQRPGQGLEWIGRIDPSDSESRLDQRFKDRATLTVDKSSSTVYMQLSSPTSEDSAVYYCARGNDGYYGFAYWGQGTLVTVSS
VL: DIVLTQSPASLAVSLGQRATISCKASQSVDYDGDSYMKWYQQKPGQPPKLLIYAASNLQSGIPARFSGSGSGTDFTLNIHPVEEEDAATYYCQQSNEDPYTFGGGTKLEIK
blocking of rhC5a-stimulated CD11b up-regulation on human neutrophils ([2]; human whole blood, Ab/Ag molar ratios 1:1 and 0.5:1, FIG. 1): completely blocked | blocking of CD11b up-regulation stimulated by rhC5a ([2]; positive control of the zymosan A whole blood experiment, FIG. 3): 100% | reduction rate of IL-8 generation [3]: up to 54% | suppression of CD11b upregulation induced by HS plasma [4]: 100% | CD11b upregulation by rhC5a and HS patient plasma samples (Pat. 088 and Pat. 092) ([1]; 20 nM, FIG. 10): completely abolish | Blocking activity (%) [1, 17]: 101.74% | CD11b (mean MFI) [1, 17]: 2209 | Blocking activity (%) [1, 18]: 103.70% | CD11b (mean MFI) [1, 18]: 2147 | CD11b (mean MFI) ([1]; huPP + rhC5a (20 nM), test material 20 nM): 2067 | CD11b (mean MFI) ([1]; huPP, non-stimulated, test material 20 nM): 2352 | Blocking activity (%) ([1]; rhC5a-spiked huPP (20 nM rhC5a), test material 20 nM): 104.29% | toxicological or safety concerns in nonclinical tests and studies [5]: None of the conducted nonclinical tests and studies revealed any toxicological or safety concerns | efficiency of neutralizing the effects of 2 molecules C5a by one antibody [6]: ~100% | HiSCR responders ([7]; out of 11 patients treated up to Day 56, 800 mg i.v.): 8 patients | HiSCR response rate ([7]; treatment period of 8 weeks, Day 56, 95% confidence interval 43% to 91%): 72.7% | safety laboratory parameters, vital signs and ECG parameters [8]: no clinically relevant time or dose-related changes
